Test results taken from patent publication US9914736B2, “TrKA kinase inhibitors, compositions and methods thereof” (Merck Sharp & Dohme Corp., priority 2014, dated 2018).

Target: human TrkA receptor (Homo sapiens (Human), UniProt P04629)
Assay: DiscoverX PathHunter TrkA functional assay
Type: cell-based
Conditions: U2OS cells expressing human TrkA-ProLink, Shc1-EA and p75NTR; compound 1 h, then NGF at ~80% of maximal response for 3 h; luminescence

human TrkA receptor, sequence (P04629 33-796): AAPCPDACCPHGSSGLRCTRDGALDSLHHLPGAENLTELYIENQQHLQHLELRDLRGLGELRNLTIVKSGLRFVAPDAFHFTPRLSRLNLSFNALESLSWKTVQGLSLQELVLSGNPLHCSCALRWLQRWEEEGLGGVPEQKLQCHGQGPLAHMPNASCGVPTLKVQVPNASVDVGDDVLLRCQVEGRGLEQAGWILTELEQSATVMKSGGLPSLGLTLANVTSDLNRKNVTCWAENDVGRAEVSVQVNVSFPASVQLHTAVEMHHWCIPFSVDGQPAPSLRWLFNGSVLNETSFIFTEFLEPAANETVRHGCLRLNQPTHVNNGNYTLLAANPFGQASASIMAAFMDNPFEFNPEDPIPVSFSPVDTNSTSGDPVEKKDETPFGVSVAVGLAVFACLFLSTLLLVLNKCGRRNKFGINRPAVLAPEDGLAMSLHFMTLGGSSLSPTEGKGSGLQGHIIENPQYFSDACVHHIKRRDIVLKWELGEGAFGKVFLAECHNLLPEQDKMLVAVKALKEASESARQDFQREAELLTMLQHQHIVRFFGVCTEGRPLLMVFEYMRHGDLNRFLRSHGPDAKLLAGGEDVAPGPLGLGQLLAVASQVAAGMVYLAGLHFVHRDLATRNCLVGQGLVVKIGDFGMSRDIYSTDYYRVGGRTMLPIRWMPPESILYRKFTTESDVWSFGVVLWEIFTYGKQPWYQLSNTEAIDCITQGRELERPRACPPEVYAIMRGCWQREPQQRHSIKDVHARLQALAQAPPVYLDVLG

| IC50 [nM] | SMILES |
| --- | --- |
| 5.5 | Cc1cccc(-c2cc(C(=O)Nc3cc(-c4ccncc4)nn3-c3ccc(F)cc3)ccc2C(F)(F)F)n1 [Compound 30, N-[1-(4-fluorophenyl)-3-pyridin-4-yl-1H-pyrazol-5-yl]-3-(6-methylpyridin-2-yl)-4-(trifluoromethyl)benzamide] |
| 860 | Cc1cccnc1-c1cc(C(=O)Nc2cc(-c3ccncc3)nn2-c2ccc(F)cc2)ccc1C(F)(F)F [Compound 31, N-[1-(4-fluorophenyl)-3-pyridin-4-yl-1H-pyrazol-5-yl]-3-(3-methylpyridin-2-yl)-4-(trifluoromethyl)benzamide] |
| 1700 | O=C(Nc1cc(-c2ccncc2)nn1-c1ccc(F)cc1)c1ccc(C(F)(F)F)c(-c2cccnc2)c1 [Compound 35, N-[1-(4-fluorophenyl)-3-pyridin-4-yl-1H-pyrazol-5-yl]-3-pyridin-3-yl-4-(trifluoromethyl)benzamide] |
| 0.37 | Cn1ccc(-c2cc(C(=O)Nc3cc(-c4ccncc4)nn3-c3ccccc3)c(Cl)cc2C(F)(F)F)n1 [Compound 36, 2-chloro-5-(1-methyl-1H-pyrazol-3-yl)-N-(1-phenyl-3-pyridin-4-yl-1H-pyrazol-5-yl)-4-(trifluoromethyl)benzamide] |
| 2.9 | O=C(Nc1cc(-c2ccncc2)nn1-c1ccccc1)c1cc(-c2cc[nH]n2)c(C(F)(F)F)cc1Cl [Compound 39, 2-chloro-N-(1-phenyl-3-pyridin-4-yl-1H-pyrazol-5-yl)-5-(1H-pyrazol-3-yl)-4-(trifluoromethyl)benzamide] |
| 3.2 | Cn1ccc(-c2cc(C(=O)Nc3cc(-c4ccncc4)nn3-c3cc(C(F)(F)F)n[nH]3)ccc2Cl)n1 [Compound 40, 4-chloro-3-(1-methyl-1H-pyrazol-3-yl)-N-[3-pyridin-4-yl-5′-(trifluoromethyl)-2′H-1,3′-bipyrazol-5-yl]benzamide] |
| 240 | O=C(Nc1cc(-c2ccncc2)nn1-c1cc(C(F)(F)F)n[nH]1)c1ccc(Cl)c(-c2cc[nH]n2)c1 [Compound 41, 4-chloro-3-(1H-pyrazol-3-yl)-N-[3-pyridin-4-yl-5′-(trifluoromethyl)-2′H-1,3′-bipyrazol-5-yl]benzamide] |
| 110 | O=C(Nc1cc(-c2ccncc2)nn1-c1ccc(F)cc1)c1ccc(Cl)c(-c2cc[nH]n2)c1 [Compound 42, 4-chloro-N-[1-(4-fluorophenyl)-3-pyridin-4-yl-1H-pyrazol-5-yl]-3-(1H-pyrazol-3-yl)benzamide] |
| 1240 | O=C(Nc1cc(-c2ccncc2)nn1-c1ccc(F)cc1)c1ccc(C(F)(F)F)c(-c2cc[nH]c(=O)c2)c1 [Compound 47, N-[1-(4-fluorophenyl)-3-pyridin-4-yl-1H-pyrazol-5-yl]-3-(2-oxo-1,2-dihydropyridin-4-yl)-4-(trifluoromethyl)benzamide] |
| 3 | Cn1ccc(-c2cc(C(=O)Nc3cc(-c4ncccn4)nn3-c3ccc(F)cc3)ccc2C(F)(F)F)n1 [Compound 60, N-[1-(4-fluorophenyl)-3-pyrimidin-2-yl-1H-pyrazol-5-yl]-3-(1-methyl-1H-pyrazol-3-yl)-4-(trifluoromethyl)benzamide] |
| 22 | O=C(Nc1cc(-c2ncccn2)nn1-c1ccc(F)cc1)c1cc(-c2cc[nH]n2)c(C(F)(F)F)cc1F [Compound 64, 2-fluoro-N-[1-(4-fluorophenyl)-3-pyrimidin-2-yl-1H-pyrazol-5-yl]-5-(1H-pyrazol-3-yl)-4-(trifluoromethyl)benzamide] |

Further lines, the compound ahead of its results:

| SMILES | IC50 [nM] |
| --- | --- |
| Cc1nc(-c2ccccc2)c(NC(=O)c2ccc(C(F)(F)F)c(-c3ccn(C)n3)c2)s1 [Compound 32, N-(2-methyl-4-phenyl-1,3-thiazol-5-yl)-3-(1-methyl-1H-pyrazol-3-yl)-4-(trifluoromethyl)benzamide] | 6 |
| CC(=O)n1cc(NC(=O)c2ccc(C(F)(F)F)c(-c3ccn(C)n3)c2)c(-c2ccccc2)n1 [Compound 33, N-(1-acetyl-3-phenyl-1H-pyrazol-4-yl)-3-(1-methyl-1H-pyrazol-3-yl)-4-(trifluoromethyl)benzamide] | 18 |
| Cn1ccc(-c2cc(C(=O)Nc3cnoc3-c3ccccc3)ccc2C(F)(F)F)n1 [Compound 37, 3-(1-methyl-1H-pyrazol-3-yl)-N-(5-phenylisoxazol-4-yl)-4-(trifluoromethyl)benzamide] | 180 |
| Cn1ccc(-c2cc(C(=O)Nc3cn(C)nc3-c3ccccc3)ccc2C(F)(F)F)n1 [Compound 43, N-(1-methyl-3-phenyl-1H-pyrazol-4-yl)-3-(1-methyl-1H-pyrazol-3-yl)-4-(trifluoromethyl)benzamide] | 11 |
| Cc1c(-c2cnn(C)c2)nn(-c2ccccc2)c1NC(=O)c1ccc(C(F)(F)F)c(-c2ccn(C)n2)c1 [Compound 44, N-(1′,4-dimethyl-1-phenyl-1H,1′H-3,4′-bipyrazol-5-yl)-3-(1-methyl-1H-pyrazol-3-yl)-4-(trifluoromethyl)benzamide] | 11 |
| Cn1ccc(-c2cc(C(=O)Nc3[nH]ncc3-c3ccccc3)c(Cl)cc2C(F)(F)F)n1 [Compound 45, 2-chloro-5-(1-methyl-1H-pyrazol-3-yl)-N-(4-phenyl-1H-pyrazol-5-yl)-4-(trifluoromethyl)benzamide] | 7 |
| Cc1cnn(-c2ccccc2)c1NC(=O)c1cc(-c2ccn(C)n2)c(C(F)(F)F)cc1Cl [Compound 46, 2-chloro-N-(4-methyl-1-phenyl-1H-pyrazol-5-yl)-5-(1-methyl-1H-pyrazol-3-yl)-4-(trifluoromethyl)benzamide] | 13 |
| Cc1cc(NC(=O)c2cc(-c3ccn(C)n3)c(C(F)(F)F)cc2Cl)n(-c2cc(C)[nH]n2)n1 [Compound 48, 2-chloro-N-(3,5′-dimethyl-1′H-1,3′-bipyrazol-5-yl)-5-(1-methyl-1H-pyrazol-3-yl)-4-(trifluoromethyl)benzamide] | 0.82 |
| Cn1ccc(-c2cc(C(=O)Nc3cn[nH]c3-c3ccccc3)c(Cl)cc2C(F)(F)F)n1 [Compound 49, 2-chloro-5-(1-methyl-1H-pyrazol-3-yl)-N-(5-phenyl-1H-pyrazol-4-yl)-4-(trifluoromethyl)benzamide] | 5.8 |
| Cn1ccc(-c2cc(C(=O)Nc3c(-c4ccccc4)nc(C(N)=O)n3C)ccc2C(F)(F)F)n1 [Compound 50, 1-methyl-5-({[3-(1-methyl-1H-pyrazol-3-yl)-4-(trifluoromethyl)phenyl]carbonyl}amino)-4-phenyl-1H-imidazole-2-carboxamide] | 5.7 |
| Cc1cc(-n2nc(CO)cc2NC(=O)c2ccc(C(F)(F)F)c(-c3ccn(C)n3)c2)[nH]n1 [Compound 51] | 2.9 |
| Cc1nc(-c2ccncc2)c(NC(=O)c2ccc(C(F)(F)F)c(-c3ccn(C)n3)c2)n1C [Compound 52, N-(1,2-dimethyl-4-pyridin-4-yl-1H-imidazol-5-yl)-3-(1-methyl-1H-pyrazol-3-yl)-4-(trifluoromethyl)benzamide] | 2100 |
| Cc1nc(-c2nc(C)n(C)c2NC(=O)c2ccc(C(F)(F)F)c(-c3ccn(C)n3)c2)cs1 [Compound 53, N-[1,2-dimethyl-4-(2-methyl-1,3-thiazol-4-yl)-1H-imidazol-5-yl]-3-(1-methyl-1H-pyrazol-3-yl)-4-(trifluoromethyl)benzamide] | 590 |
| Cc1cc(NC(=O)c2cc(-c3cc[nH]n3)ccc2Cl)n(-c2cc(C)[nH]n2)n1 [Compound 54, 2-chloro-N-(3,5′-dimethyl-1′H-1,3′-bipyrazol-5-yl)-5-(1H-pyrazol-3-yl)benzamide] | 490 |
| Cn1ccc(-c2cc(C(=O)Nc3cc(-c4ccc(=O)[nH]n4)nn3-c3ccccc3)c(Cl)cc2C(F)(F)F)n1 [Compound 55, 2-chloro-5-(1-methyl-1H-pyrazol-3-yl)-N-[3-(6-oxo-1,6-dihydropyridazin-3-yl)-1-phenyl-1H-pyrazol-5-yl]-4-(trifluoromethyl)benzamide] | 1.6 |
| Cc1cc(-n2nc(-c3ccc(=O)[nH]n3)cc2NC(=O)c2ccc(C(F)(F)F)c(-c3ncccn3)c2)n[nH]1 [Compound 57, N-[5′-methyl-3-(6-oxo-1,6-dihydropyridazin-3-yl)-1′H-1,3′-bipyrazol-5-yl]-3-pyrimidin-2-yl-4-(trifluoromethyl)benzamide] | 78 |
| Cn1ccc(-c2cc(C(=O)Nc3cc(Cc4nnn(C)n4)nn3-c3ccccc3)c(Cl)cc2C(F)(F)F)n1 [Compound 58, 2-chloro-5-(1-methyl-1H-pyrazol-3-yl)-N-{3-[(2-methyl-2H-tetrazol-5-yl)methyl]-1-phenyl-1H-pyrazol-5-yl}-4-(trifluoromethyl)benzamide] | 3.4 |
| Cn1ccc(-c2cc(C(=O)Nc3cc(Cc4nnnn4C)nn3-c3ccccc3)c(Cl)cc2C(F)(F)F)n1 [Compound 59, 2-chloro-5-(1-methyl-1H-pyrazol-3-yl)-N-{3-[(1-methyl-1H-tetrazol-5-yl)methyl]-1-phenyl-1H-pyrazol-5-yl}-4-(trifluoromethyl)benzamide] | 1.7 |
| Cc1coc(-c2cc(C(=O)Nc3cc(-c4cn[nH]c4)nn3-c3cc(C)[nH]n3)ccc2C(F)(F)F)n1 [Compound 61, 3-(4-methyl-1,3-oxazol-2-yl)-N-(5-methyl-1H,1″H-3,1′:3′,4″-terpyrazol-5′-yl)-4-(trifluoromethyl)benzamide] | 3.1 |
| O=C(Nc1cn[nH]c1-c1ccccc1)c1cc(-c2cc[nH]n2)c(C(F)(F)F)cc1F [Compound 62, 2-fluoro-N-(5-phenyl-1H-pyrazol-4-yl)-5-(1H-pyrazol-3-yl)-4-(trifluoromethyl)benzamide] | 85 |
| Cc1nc(-c2ccccc2)c(NC(=O)c2cc(-c3ccn(C)n3)c(C(F)(F)F)cc2F)n1C [Compound 63, N-(1,2-dimethyl-4-phenyl-1H-imidazol-5-yl)-2-fluoro-5-(1-methyl-1H-pyrazol-3-yl)-4-(trifluoromethyl)benzamide] | 8.4 |
| Cn1ccc(-c2cc(C(=O)Nc3cn(C)nc3-c3ccccc3)c(F)cc2C(F)(F)F)n1 [Compound 65, 2-fluoro-N-(1-methyl-3-phenyl-1H-pyrazol-4-yl)-5-(1-methyl-1H-pyrazol-3-yl)-4-(trifluoromethyl)benzamide] | 4.5 |
| Cn1ccc(-c2cc(C(=O)Nc3cc(Cn4cnnn4)nn3-c3ccccc3)ccc2C(F)(F)F)n1 [Compound 66, 3-(1-methyl-1H-pyrazol-3-yl)-N-[1-phenyl-3-(1H-tetrazol-1-ylmethyl)-1H-pyrazol-5-yl]-4-(trifluoromethyl)benzamide] | 2.3 |
